Assay: xn = mol fraction of the nth substance listed
Conditions: 100.9 kPa

CC(=O)[O-].CC[NH2+]CC + O
Conditions | electrical conductivity [S/m] | speed of sound [m/s] | viscosity [mPa·s]
283.15 K, x1 = 0.015 | – | – | 2.07
283.15 K, x1 = 0.055 | – | – | 5.43
283.15 K, x1 = 0.119 | – | – | 15.42
283.15 K, x1 = 0.549 | – | – | 143.2
283.15 K, x1 = 0.714 | – | – | 161.6
285.65 K, x1 = 0.015 | – | – | 1.92
285.65 K, x1 = 0.055 | – | – | 4.91
285.65 K, x1 = 0.119 | – | – | 13.69
285.65 K, x1 = 0.168 | – | – | 24.1
285.65 K, x1 = 0.24 | – | – | 47.8
285.65 K, x1 = 0.351 | – | – | 79.3
285.65 K, x1 = 0.549 | – | – | 122.5
285.65 K, x1 = 0.714 | – | – | 138.5
288.15 K, x1 = 0.015 | – | – | 1.78
288.15 K, x1 = 0.055 | – | – | 4.46
288.15 K, x1 = 0.119 | – | – | 12.18
288.15 K, x1 = 0.168 | – | – | 21.1
288.15 K, x1 = 0.24 | – | – | 41.6
288.15 K, x1 = 0.351 | – | – | 68.3
288.15 K, x1 = 0.714 | – | – | 119
290.65 K, x1 = 0.015 | – | – | 1.65
290.65 K, x1 = 0.055 | – | – | 4.05
290.65 K, x1 = 0.119 | – | – | 10.87
290.65 K, x1 = 0.168 | – | – | 18.7
290.65 K, x1 = 0.24 | – | – | 36.3
290.65 K, x1 = 0.351 | – | – | 59
290.65 K, x1 = 0.549 | – | – | 90.6
290.65 K, x1 = 0.714 | – | – | 102.7
293.15 K, x1 = 0.015 | – | 1580 | 1.538
293.15 K, x1 = 0.055 | – | 1761 | 3.73
293.15 K, x1 = 0.119 | – | 1844 | 9.74
293.15 K, x1 = 0.168 | – | 1826 | 16.49
293.15 K, x1 = 0.24 | – | 1768 | 31.8
293.15 K, x1 = 0.35 | – | 1704 | –
293.15 K, x1 = 0.351 | – | – | 51.2
293.15 K, x1 = 0.549 | – | 1597 | 78.4
293.15 K, x1 = 0.708 | – | 1554 | –
293.15 K, x1 = 0.714 | – | – | 89.2
293.15 K, x1 = 0.835 | – | 1523 | –
295.65 K, x1 = 0.015 | – | – | 1.437
295.65 K, x1 = 0.055 | – | – | 3.4
295.65 K, x1 = 0.119 | – | – | 8.75
295.65 K, x1 = 0.24 | – | – | 28
295.65 K, x1 = 0.351 | – | – | 44.7
295.65 K, x1 = 0.549 | – | – | 68.4
295.65 K, x1 = 0.714 | – | – | 77.8
298.15 K, x1 = 0.007 | 1.55 | – | –
298.15 K, x1 = 0.015 | 2.35 | 1588 | 1.346
298.15 K, x1 = 0.054 | 3.1 | – | –
298.15 K, x1 = 0.055 | – | 1756 | 3.12
298.15 K, x1 = 0.119 | – | 1832 | 7.91
298.15 K, x1 = 0.12 | 2.48 | – | –
298.15 K, x1 = 0.168 | 1.73 | 1813 | 13.13
298.15 K, x1 = 0.24 | 0.98 | 1754 | 24.8
298.15 K, x1 = 0.351 | – | – | 39.3
298.15 K, x1 = 0.353 | 0.708 | – | –
298.15 K, x1 = 0.549 | – | 1583 | 59.9
298.15 K, x1 = 0.55 | 0.365 | – | –
298.15 K, x1 = 0.714 | 0.26 | – | 68.2
298.15 K, x1 = 0.835 | – | 1507 | –
298.15 K, x1 = 0.838 | 0.231 | – | –
298.15 K, x1 = 0.945 | 0.23 | – | –
300.65 K, x1 = 0.015 | – | – | 1.263
300.65 K, x1 = 0.055 | – | – | 2.88
300.65 K, x1 = 0.119 | – | – | 7.17
300.65 K, x1 = 0.24 | – | – | 21.9
300.65 K, x1 = 0.351 | – | – | 34.6
300.65 K, x1 = 0.549 | – | – | 52.4
300.65 K, x1 = 0.714 | – | – | 60
303.15 K, x1 = 0.007 | 1.69 | – | –
303.15 K, x1 = 0.015 | 3.24 | 1595 | 1.189
303.15 K, x1 = 0.054 | 4.76 | – | –
303.15 K, x1 = 0.055 | – | 1751 | 2.67
303.15 K, x1 = 0.119 | – | 1819 | 6.51
303.15 K, x1 = 0.12 | 3.2 | – | –
303.15 K, x1 = 0.24 | 1.5 | 1741 | 19.6
303.15 K, x1 = 0.35 | – | 1677 | –
303.15 K, x1 = 0.353 | 0.823 | – | –
303.15 K, x1 = 0.549 | – | 1569 | 46.3
303.15 K, x1 = 0.55 | 0.473 | – | –
303.15 K, x1 = 0.708 | – | 1524 | –
303.15 K, x1 = 0.714 | 0.365 | – | 53
303.15 K, x1 = 0.838 | 0.297 | – | –
303.15 K, x1 = 0.945 | 0.29 | – | –
305.65 K, x1 = 0.015 | – | – | 1.121
305.65 K, x1 = 0.055 | – | – | 2.48
305.65 K, x1 = 0.119 | – | – | 5.94
305.65 K, x1 = 0.168 | – | – | 9.61
305.65 K, x1 = 0.351 | – | – | 27.2
305.65 K, x1 = 0.549 | – | – | 41.1
305.65 K, x1 = 0.714 | – | – | 47
308.15 K, x1 = 0.015 | – | 1601 | 1.059
308.15 K, x1 = 0.055 | – | 1745 | 2.31
308.15 K, x1 = 0.119 | – | 1807 | 5.44
308.15 K, x1 = 0.168 | – | 1786 | 8.71
308.15 K, x1 = 0.24 | – | 1727 | 15.67
308.15 K, x1 = 0.35 | – | 1664 | –
308.15 K, x1 = 0.351 | – | – | 24.2
308.15 K, x1 = 0.549 | – | 1555 | 36.6
308.15 K, x1 = 0.708 | – | 1509 | –
308.15 K, x1 = 0.714 | – | – | 41.9
310.65 K, x1 = 0.015 | – | – | 1.003
310.65 K, x1 = 0.055 | – | – | 2.15
310.65 K, x1 = 0.119 | – | – | 5
310.65 K, x1 = 0.168 | – | – | 7.94
310.65 K, x1 = 0.351 | – | – | 21.7
310.65 K, x1 = 0.714 | – | – | 37.4
310.65 K, x1 = 0.84 | – | – | 38
313.15 K, x1 = 0.015 | – | 1605 | 0.952
313.15 K, x1 = 0.055 | – | 1739 | 2.01
313.15 K, x1 = 0.119 | – | 1794 | 4.6
313.15 K, x1 = 0.168 | – | 1772 | 7.26
313.15 K, x1 = 0.24 | – | 1713 | 12.76
313.15 K, x1 = 0.35 | – | 1650 | –

From a compilation of properties of binary mixtures (doi:10.1016/j.jct.2020.106093)
